Source: the supplement of paper PMC10307832

Legend:
Assay in all cases: relative viability (nuclei count vs DMSO), 5 days (fraction); higher = more cells survive
[1] = test system: NCI-H1395
Summary of the method: (§1)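 Cells from lung cancer lines were seeded into 1536-well plates and, one day later, dosed by pin tool. Treatments were either a single drug or a fixed dose of an anchor drug with five library-drug doses (not always all listed) in √10 steps. After 5 days, nuclei were stained in a one-step fixation (final 0.05% Triton X-100, 1% formaldehyde, 1 ug/ml Hoechst) and counted on 4× images, and relative viability is the treated-to-vehicle nuclei ratio, as the median of duplicate plates.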

[2] = test system: COR-L 105
Summary of the method: as §1

[3] = test system: COR-L23
Summary of the method: as §1

[4] = test system: NCI-H1793
Summary of the method: as §1

[5] = test system: HARA
Summary of the method: as §1

[6] = test system: NCI-H2228
Summary of the method: as §1

[7] = test system: UMC-11
Summary of the method: as §1

[8] = test system: NCI-H2347
Summary of the method: as §1

[9] = test system: HOP-62
Summary of the method: as §1

[10] = test system: HCC-15
Summary of the method: as §1

[11] = test system: NCI-H2009
Summary of the method: as §1

[12] = test system: NCI-H1734
Summary of the method: as §1

[13] = test system: NCI-H1755
Summary of the method: as §1

[14] = test system: SK-MES-1
Summary of the method: as §1

[15] = test system: NCI-H838
Summary of the method: as §1

[16] = test system: NCI-H1993
Summary of the method: as §1

[17] = test system: NCI-H1355
Summary of the method: as §1

[18] = test system: NCI-H647
Summary of the method: as §1

[19] = test system: NCI-H358
Summary of the method: as §1

[20] = test system: NCI-H2170
Summary of the method: as §1

CC(=O)O[C@@]12CO[C@@H]1C[C@H](O)[C@@]1(C)C(=O)[C@H](O)C3=C(C)[C@@H](OC(=O)[C@H](O)[C@@H](NC(=O)OC(C)(C)C)c4ccccc4)C[C@@](O)([C@@H](OC(=O)c4ccccc4)[C@H]21)C3(C)C [Docetaxel] + COc1cc2c(Oc3ccc(NC(=O)C4(C(=O)Nc5ccc(F)cc5)CC4)cc3F)ccnc2cc1OCCCN1CCOCC1 [Foretinib] (partner 0.25 µM)
relative viability ([1]; first compound 0.0002 µM): 0.883 | relative viability ([1]; first compound 0.000632 µM): 0.874 | relative viability ([1]; first compound 0.002 µM): 0.904 | relative viability ([1]; first compound 0.006325 µM): 0.456 | relative viability ([1]; first compound 0.02 µM): 0.342 | relative viability ([2]; first compound 0.0002 µM): 0.986 | relative viability ([2]; first compound 0.000632 µM): 0.95 | relative viability ([2]; first compound 0.002 µM): 0.487 | relative viability ([2]; first compound 0.006325 µM): 0.475 | relative viability ([2]; first compound 0.02 µM): 0.331 | relative viability ([3]; first compound 0.0002 µM): 0.891 | relative viability ([3]; first compound 0.000632 µM): 0.896 | relative viability ([3]; first compound 0.002 µM): 0.561 | relative viability ([3]; first compound 0.006325 µM): 0.173 | relative viability ([3]; first compound 0.02 µM): 0.116 | relative viability ([4]; first compound 0.0002 µM): 0.592 | relative viability ([4]; first compound 0.000632 µM): 0.493 | relative viability ([4]; first compound 0.002 µM): 0.391 | relative viability ([4]; first compound 0.006325 µM): 0.204 | relative viability ([4]; first compound 0.02 µM): 0.186 | relative viability ([5]; first compound 0.0002 µM): 0.709 | relative viability ([5]; first compound 0.000632 µM): 0.128 | relative viability ([5]; first compound 0.002 µM): 0.146 | relative viability ([5]; first compound 0.006325 µM): 0.0748 | relative viability ([5]; first compound 0.02 µM): 0.0559 | relative viability ([6]; first compound 0.0002 µM): 0.785 | relative viability ([6]; first compound 0.000632 µM): 0.222 | relative viability ([6]; first compound 0.002 µM): 0.185 | relative viability ([6]; first compound 0.006325 µM): 0.145 | relative viability ([6]; first compound 0.02 µM): 0.137 | relative viability ([7]; first compound 0.0002 µM): 0.934 | relative viability ([7]; first compound 0.000632 µM): 0.943 | relative viability ([7]; first compound 0.002 µM): 0.307 | relative viability ([7]; first compound 0.006325 µM): 0.245 | relative viability ([7]; first compound 0.02 µM): 0.186 | relative viability ([8]; first compound 0.0002 µM): 0.806 | relative viability ([8]; first compound 0.000632 µM): 0.815 | relative viability ([8]; first compound 0.002 µM): 0.541 | relative viability ([8]; first compound 0.006325 µM): 0.31 | relative viability ([8]; first compound 0.02 µM): 0.368 | relative viability ([9]; first compound 0.0002 µM): 1.07 | relative viability ([9]; first compound 0.000632 µM): 0.732 | relative viability ([9]; first compound 0.002 µM): 0.427 | relative viability ([9]; first compound 0.006325 µM): 0.295 | relative viability ([10]; first compound 0.0002 µM): 0.906 | relative viability ([10]; first compound 0.000632 µM): 0.472 | relative viability ([10]; first compound 0.002 µM): 0.233 | relative viability ([10]; first compound 0.006325 µM): 0.27 | relative viability ([10]; first compound 0.02 µM): 0.162 | relative viability ([11]; first compound 0.0002 µM): 1.18 | relative viability ([11]; first compound 0.000632 µM): 1.26 | relative viability ([11]; first compound 0.002 µM): 0.952 | relative viability ([11]; first compound 0.006325 µM): 0.467 | relative viability ([11]; first compound 0.02 µM): 0.304 | relative viability ([12]; first compound 0.0002 µM): 0.776 | relative viability ([12]; first compound 0.000632 µM): 0.743 | relative viability ([12]; first compound 0.002 µM): 0.404 | relative viability ([12]; first compound 0.006325 µM): 0.336 | relative viability ([12]; first compound 0.02 µM): 0.227 | relative viability ([13]; first compound 0.0002 µM): 0.901 | relative viability ([13]; first compound 0.000632 µM): 0.88 | relative viability ([13]; first compound 0.002 µM): 0.564 | relative viability ([13]; first compound 0.006325 µM): 0.351 | relative viability ([13]; first compound 0.02 µM): 0.373 | relative viability ([14]; first compound 0.0002 µM): 0.84 | relative viability ([14]; first compound 0.000632 µM): 0.923 | relative viability ([14]; first compound 0.002 µM): 0.508 | relative viability ([14]; first compound 0.006325 µM): 0.368 | relative viability ([14]; first compound 0.02 µM): 0.168 | relative viability ([15]; first compound 0.0002 µM): 0.98 | relative viability ([15]; first compound 0.000632 µM): 1.03 | relative viability ([15]; first compound 0.002 µM): 0.262 | relative viability ([15]; first compound 0.006325 µM): 0.283 | relative viability ([15]; first compound 0.02 µM): 0.162 | relative viability ([16]; first compound 0.0002 µM): 0.78 | relative viability ([16]; first compound 0.000632 µM): 0.803 | relative viability ([16]; first compound 0.002 µM): 0.659 | relative viability ([16]; first compound 0.006325 µM): 0.671 | relative viability ([16]; first compound 0.02 µM): 0.51 | relative viability ([17]; first compound 0.0002 µM): 0.958 | relative viability ([17]; first compound 0.000632 µM): 0.886 | relative viability ([17]; first compound 0.002 µM): 0.625 | relative viability ([17]; first compound 0.006325 µM): 0.276 | relative viability ([17]; first compound 0.02 µM): 0.243 | relative viability ([18]; first compound 0.0002 µM): 1.25 | relative viability ([18]; first compound 0.000632 µM): 1.06 | relative viability ([18]; first compound 0.002 µM): 0.179 | relative viability ([18]; first compound 0.006325 µM): 0.182 | relative viability ([18]; first compound 0.02 µM): 0.111 | relative viability ([19]; first compound 0.0002 µM): 0.66 | relative viability ([19]; first compound 0.000632 µM): 0.217 | relative viability ([19]; first compound 0.006325 µM): 0.122 | relative viability ([19]; first compound 0.02 µM): 0.0708 | relative viability ([20]; first compound 0.0002 µM): 0.995 | relative viability ([20]; first compound 0.000632 µM): 0.962 | relative viability ([20]; first compound 0.002 µM): 0.754 | relative viability ([20]; first compound 0.006325 µM): 0.232 | relative viability ([20]; first compound 0.02 µM): 0.203
